test system: recombinant NL4-3 virus (Renilla luciferase in nef, Gag P373S; NLRluc) in MT-2 cells; assay: whole plant or invertebrate; assay type: cell-based, HIV; details: Renilla, NL43, luciferase activity in cells infected for 4-5 days with NLRluc recombinants, serial dilutions of inhibitor; class symbols (key in Table 1); read-out: EC50
Summary of the method: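 Inhibitor potency against the reporter virus comes from reduced luciferase activity in infected MT-2 cells exposed to a dilution series of compound over 4-5 days.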

Compound	EC50
C=C(C)[C@@H]1CC[C@]2(NCc3csc(C)n3)CC[C@]3(C)[C@H](CC[C@@H]4[C@@]5(C)CC=C(c6ccc(C(=O)O)cc6)C(C)(C)[C@@H]5CC[C@]43C)[C@@H]12 [Example 162, 4-((1R,3aS,5aR,5bR,7aR,11aS,11bR,13aR,13bR)-5a,5b,8,8,11a-pentamethyl-3a-((2-methylthiazol-4-yl)methylamino)-1-(prop-1-en-2-yl)-2,3,3a,4,5,5a,5b,6,7,7a,8,11,11a,11b,12,13,13a,13b-octadecahydro-1H-cyclopenta[a]chrysen-9-yl)benzoic acid]	< 100 nM
C=C(C)[C@@H]1CC[C@]2(NCCN3CCN(S(=O)(=O)CCCCl)CC3)CC[C@]3(C)[C@H](CC[C@@H]4[C@@]5(C)CC=C(c6ccc(C(=O)O)cc6)C(C)(C)[C@@H]5CC[C@]43C)[C@@H]12 [Example B38, 4-((1R,3aS,5aR,5bR,7aR,11aS,11bR,13aR,13bR)-3a-((2-(4-((3-chloropropyl)sulfonyl)piperazin-1-yl)ethyl)amino)-5a,5b,8,8,11a-pentamethyl-1-(prop-1-en-2-yl)-2,3,3a,4,5,5a,5b,6,7,7a,8,11,11a,11b,12,13,13a,13b-octadecahydro-1H-cyclopenta[a]chrysen-9-yl)benzoic acid]	< 100 nM
C=C(C)[C@@H]1CC[C@]2(NC(=O)N3CCNC(=O)C3)CC[C@]3(C)[C@H](CC[C@@H]4[C@@]5(C)CC=C(c6ccc(C(=O)O)cc6)C(C)(C)[C@@H]5CC[C@]43C)[C@@H]12 [Example 57, 4-((1R,3aS,5aR,5bR,7aR,11aS,11bR,13aR,13bR)-5a,5b,8,8,11a-pentamethyl-3a-(3-oxopiperazine-1-carboxamido)-1-(prop-1-en-2-yl)-2,3,3a,4,5,5a,5b,6,7,7a,8,11,11a,11b,12,13,13a,13b-octadecahydro-1H-cyclopenta[a]chrysen-9-yl)benzoic acid]	< 100 nM
C=C(C)[C@@H]1CC[C@]2(NCCN3CCN(S(=O)(=O)CCCC)CC3)CC[C@]3(C)[C@H](CC[C@@H]4[C@@]5(C)CC=C(c6ccc(C(=O)O)cc6)C(C)(C)[C@@H]5CC[C@]43C)[C@@H]12 [Example B39, 4-((1R,3aS,5aR,5bR,7aR,11aS,11bR,13aR,13bR)-3a-((2-(4-(butylsulfonyl)piperazin-1-yl)ethyl)amino)-5a,5b,8,8,11a-pentamethyl-1-(prop-1-en-2-yl)-2,3,3a,4,5,5a,5b,6,7,7a,8,11,11a,11b,12,13,13a,13b-octadecahydro-1H-cyclopenta[a]chrysen-9-yl)benzoic acid]	< 100 nM
C=C(C)[C@@H]1CC[C@]2(NC(=O)CN3CCS(=O)(=O)CC3)CC[C@]3(C)[C@H](CC[C@@H]4[C@@]5(C)CC=C(c6ccc(C(=O)O)cc6)C(C)(C)[C@@H]5CC[C@]43C)[C@@H]12 [Example 82, benzoic acid, 4-[(1R,3aS,5aR,5bR,7aR,11aS,11bR,13aR,13bR)-3a-[[(1,1-dioxido-4-thiomorpholinyl)acetyl]amino]-2,3,3a,4,5,5a,5b,6,7,7a,8,11,11a,11b,12,13,13a,13b-octadecahydro-5a,5b,8,8,11a-pentamethyl-1-(1-methylethenyl)-1H-cyclopenta[a]chrysen-9-yl]]	< 100 nM
C=C(C)[C@@H]1CC[C@]2(NCCNS(C)(=O)=O)CC[C@]3(C)[C@H](CC[C@@H]4[C@@]5(C)CC=C(c6ccc(C(=O)O)cc6)C(C)(C)[C@@H]5CC[C@]43C)[C@@H]12 [Example B21, 4-((1R,3aS,5aR,5bR,7aR,11aS,11bR,13aR,13bR)-5a,5b,8,8,11a-pentamethyl-3a-((2-(methylsulfonamido)ethyl)amino)-1-(prop-1-en-2-yl)-2,3,3a,4,5,5a,5b,6,7,7a,8,11,11a,11b,12,13,13a,13b-octadecahydro-1H-cyclopenta[a]chrysen-9-yl)benzoic acid]	< 100 nM
C=C(C)[C@@H]1CC[C@]2(NC(=O)N(CCCN(C)C)CCCN(C)C)CC[C@]3(C)[C@H](CC[C@@H]4[C@@]5(C)CC=C(c6ccc(C(=O)O)cc6)C(C)(C)[C@@H]5CC[C@]43C)[C@@H]12 [Example 30, 4-((1R,3aS,5aR,5bR,7aR,11aS,11bR,13aR,13bR)-3a-(3,3-bis(3-(dimethylamino)propyl)ureido)-5a,5b,8,8,11a-pentamethyl-1-(prop-1-en-2-yl)-2,3,3a,4,5,5a,5b,6,7,7a,8,11,11a,11b,12,13,13a,13b-octadecahydro-1H-cyclopenta[a]chrysen-9-yl)benzoic acid]	< 100 nM
C=C(C)[C@@H]1CC[C@]2(NCCN3CCN(S(=O)(=O)N(CC)CC)CC3)CC[C@]3(C)[C@H](CC[C@@H]4[C@@]5(C)CC=C(c6ccc(C(=O)O)cc6)C(C)(C)[C@@H]5CC[C@]43C)[C@@H]12 [Example B37, 4-((1R,3aS,5aR,5bR,7aR,11aS,11bR,13aR,13bR)-3a-((2-(4-(N,N-diethylsulfamoyl)piperazin-1-yl)ethyl)amino)-5a,5b,8,8,11a-pentamethyl-1-(prop-1-en-2-yl)-2,3,3a,4,5,5a,5b,6,7,7a,8,11,11a,11b,12,13,13a,13b-octadecahydro-1H-cyclopenta[a]chrysen-9-yl)benzoic acid]	< 100 nM
C=C(C)[C@@H]1CC[C@]2(NCC3CC3)CC[C@]3(C)[C@H](CC[C@@H]4[C@@]5(C)CC=C(c6ccc(C(=O)O)cc6)C(C)(C)[C@@H]5CC[C@]43C)[C@@H]12 [Example 152, 4-((1R,3aS,5aR,5bR,7aR,11aS,11bR,13aR,13bR)-3a-(cyclopropylmethylamino)-5a,5b,8,8,11a-pentamethyl-1-(prop-1-en-2-yl)-2,3,3a,4,5,5a,5b,6,7,7a,8,11,11a,11b,12,13,13a,13b-octadecahydro-1H-cyclopenta[a]chrysen-9-yl)benzoic acid]	< 100 nM
C=C(C)[C@@H]1CC[C@]2(NCCNc3nccc(SC)n3)CC[C@]3(C)[C@H](CC[C@@H]4[C@@]5(C)CC=C(c6ccc(C(=O)O)cc6)C(C)(C)[C@@H]5CC[C@]43C)[C@@H]12 [Example 197, 4-((1R,3aS,5aR,5bR,7aR,11aS,11bR,13aR,13bR)-5a,5b,8,8,11a-pentamethyl-3a-(2-(4-(methylthio)pyrimidin-2-ylamino)ethylamino)-1-(prop-1-en-2-yl)-2,3,3a,4,5,5a,5b,6,7,7a,8,11,11a,11b,12,13,13a,13b-octadecahydro-1H-cyclopenta[a]chrysen-9-yl)benzoic acid]	< 100 nM
C=C(C)[C@@H]1CC[C@]2(NCCN3CCCC3=O)CC[C@]3(C)[C@H](CC[C@@H]4[C@@]5(C)CC=C(c6ccc(C(=O)O)cc6)C(C)(C)[C@@H]5CC[C@]43C)[C@@H]12 [Example 146, 4-((1R,3aS,5aR,5bR,7aR,11aS,11bR,13aR,13bR)-5a,5b,8,8,11a-pentamethyl-3a-(2-(2-oxopyrrolidin-1-yl)ethylamino)-1-(prop-1-en-2-yl)-2,3,3a,4,5,5a,5b,6,7,7a,8,11,11a,11b,12,13,13a,13b-octadecahydro-1H-cyclopenta[a]chrysen-9-yl)benzoic acid]	< 100 nM
C=C(C)[C@@H]1CC[C@]2(NC(=O)NC(C)(C)CN3CCOCC3)CC[C@]3(C)[C@H](CC[C@@H]4[C@@]5(C)CC=C(c6ccc(C(=O)O)cc6)C(C)(C)[C@@H]5CC[C@]43C)[C@@H]12 [Example 5, 4-((1R,3aS,5aR,5bR,7aR,11aS,11bR,13aR,13bR)-5a,5b,8,8,11a-pentamethyl-3a-(3-(2-methyl-1-morpholinopropan-2-yl)ureido)-1-(prop-1-en-2-yl)-2,3,3a,4,5,5a,5b,6,7,7a,8,11,11a,11b,12,13,13a,13b-octadecahydro-1H-cyclopenta[a]chrysen-9-yl)benzoic acid]	< 100 nM
C=C(C)[C@@H]1CC[C@]2(NCCCN3CCOCC3)CC[C@]3(C)[C@H](CC[C@@H]4[C@@]5(C)CC=C(c6ccc(C(=O)O)cc6)C(C)(C)[C@@H]5CC[C@]43C)[C@@H]12 [Example 165, 4-((1R,3aS,5aR,5bR,7aR,11aS,11bR,13aR,13bR)-5a,5b,8,8,11a-pentamethyl-3a-(3-morpholinopropylamino)-1-(prop-1-en-2-yl)-2,3,3a,4,5,5a,5b,6,7,7a,8,11,11a,11b,12,13,13a,13b-octadecahydro-1H-cyclopenta[a]chrysen-9-yl)benzoic acid]	< 100 nM
C=C(C)[C@@H]1CC[C@]2(NCCN3CCCC3=O)CC[C@]3(C)[C@H](CC[C@@H]4[C@@]5(C)CC=C(c6ccc(C(=O)O)c(F)c6)C(C)(C)[C@@H]5CC[C@]43C)[C@@H]12 [Example A4, 2-fluoro-4-((1R,3aS,5aR,5bR,7aR,11aS,11bR,13aR,13bR)-5a,5b,8,8,11a-pentamethyl-3a-(2-(2-oxopyrrolidin-1-yl)ethylamino)-1-(prop-1-en-2-yl)-2,3,3a,4,5,5a,5b,6,7,7a,8,11,11a,11b,12,13,13a,13b-octadecahydro-1H-cyclopenta[a]chrysen-9-yl)benzoic acid]	< 100 nM
C=C(C)[C@@H]1CC[C@]2(NC(=O)CCN(C)C)CC[C@]3(C)[C@H](CC[C@@H]4[C@@]5(C)CC=C(c6ccc(C(=O)O)cc6)C(C)(C)[C@@H]5CC[C@]43C)[C@@H]12 [Example 73, 4-((1R,3aS,5aR,5bR,7aR,11aS,11bR,13aR,13bR)-3a-(3-(dimethylamino)propanamido)-5a,5b,8,8,11a-pentamethyl-1-(prop-1-en-2-yl)-2,3,3a,4,5,5a,5b,6,7,7a,8,11,11a,11b,12,13,13a,13b-octadecahydro-1H-cyclopenta[a]chrysen-9-yl)benzoic acid]	< 100 nM
C=C(C)[C@@H]1CC[C@]2(NC(=O)C(C)N3CCS(=O)(=O)CC3)CC[C@]3(C)[C@H](CC[C@@H]4[C@@]5(C)CC=C(c6ccc(C(=O)O)cc6)C(C)(C)[C@@H]5CC[C@]43C)[C@@H]12 (stereo partly drawn) [Example 93, benzoic acid, 4-[(1R,3aS,5aR,5bR,7aR,11aS,11bR,13aR,13bR)-3a-[[2-(1,1-dioxido-4-thiomorpholinyl)-1-oxopropyl]amino]-2,3,3a,4,5,5a,5b,6,7,7a,8,11,11a,11b,12,13,13a,13b-octadecahydro-5a,5b,8,8,11a-pentamethyl-1-(1-methylethenyl)-1H-cyclopenta[a]chrysen-9-yl]]	< 100 nM
